How the values were obtained:
human recombinant HDAC1 = target: T1, human recombinant HDAC1 (Homo sapiens, UniProt Q13547); experiment: HDAC1 enzyme activity inhibition test (HDAC Fluorometric Drug Discovery Kit); format: biochemical; settings: 30° C., 60 minutes, 10 μM substrate
T1 construct: purchased Enzo Life Science BML-SE456
In short: (§1)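 Recombinant human HDAC1 or HDAC6 (0.3 μg) reacted with 10 μM Fluor de Lys SIRT1 substrate and 5-fold diluted compound for 60 min at 30 °C. Developer II added 30 min; fluorescence read at Ex 360/Em 460 and IC50 calculated.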

human recombinant HDAC6 = target: T2, human recombinant HDAC6 (Homo sapiens, UniProt Q9UBN7); experiment: HDAC6 enzyme activity inhibition test (HDAC Fluorometric Drug Discovery Kit); format: biochemical; settings: for HDAC6 selectivity (fold): HDAC6 over HDAC1; for IC50: human recombinant HDAC6, same protocol as HDAC1
T2 construct: purchased Calbiochem 382180
T2 sequence (Q9UBN7 1-1215): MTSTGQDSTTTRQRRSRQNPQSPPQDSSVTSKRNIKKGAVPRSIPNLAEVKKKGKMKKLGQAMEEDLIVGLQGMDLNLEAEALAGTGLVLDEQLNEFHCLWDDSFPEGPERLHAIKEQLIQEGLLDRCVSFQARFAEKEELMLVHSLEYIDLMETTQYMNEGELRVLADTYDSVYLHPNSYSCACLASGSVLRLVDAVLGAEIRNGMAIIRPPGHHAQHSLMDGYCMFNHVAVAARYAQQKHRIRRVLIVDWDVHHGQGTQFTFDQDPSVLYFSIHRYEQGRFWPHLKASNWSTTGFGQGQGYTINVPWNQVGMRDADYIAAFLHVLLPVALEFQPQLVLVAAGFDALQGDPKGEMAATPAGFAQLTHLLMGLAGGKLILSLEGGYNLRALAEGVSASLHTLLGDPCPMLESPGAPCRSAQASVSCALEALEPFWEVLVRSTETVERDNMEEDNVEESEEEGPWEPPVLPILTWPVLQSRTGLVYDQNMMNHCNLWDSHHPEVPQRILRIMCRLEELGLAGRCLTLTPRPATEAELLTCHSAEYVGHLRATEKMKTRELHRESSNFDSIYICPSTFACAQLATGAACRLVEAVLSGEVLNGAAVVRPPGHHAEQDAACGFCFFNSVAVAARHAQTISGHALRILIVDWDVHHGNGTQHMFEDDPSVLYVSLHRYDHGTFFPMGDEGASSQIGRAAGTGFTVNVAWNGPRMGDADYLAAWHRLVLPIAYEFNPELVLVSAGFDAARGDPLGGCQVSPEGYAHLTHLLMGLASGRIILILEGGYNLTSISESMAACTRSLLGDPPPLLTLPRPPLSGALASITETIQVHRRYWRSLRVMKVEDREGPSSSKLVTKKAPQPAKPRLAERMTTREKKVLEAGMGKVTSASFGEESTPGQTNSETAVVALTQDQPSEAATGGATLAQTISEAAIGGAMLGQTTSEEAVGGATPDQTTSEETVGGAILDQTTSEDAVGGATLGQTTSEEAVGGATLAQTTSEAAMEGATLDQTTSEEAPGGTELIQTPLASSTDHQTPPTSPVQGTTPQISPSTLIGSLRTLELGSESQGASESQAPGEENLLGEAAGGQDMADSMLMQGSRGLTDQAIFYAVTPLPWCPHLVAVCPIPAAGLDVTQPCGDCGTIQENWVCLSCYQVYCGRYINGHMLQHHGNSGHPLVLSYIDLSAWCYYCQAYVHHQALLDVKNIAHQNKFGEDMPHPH
In short: as §1

T1 sequence (Q13547 whole entry): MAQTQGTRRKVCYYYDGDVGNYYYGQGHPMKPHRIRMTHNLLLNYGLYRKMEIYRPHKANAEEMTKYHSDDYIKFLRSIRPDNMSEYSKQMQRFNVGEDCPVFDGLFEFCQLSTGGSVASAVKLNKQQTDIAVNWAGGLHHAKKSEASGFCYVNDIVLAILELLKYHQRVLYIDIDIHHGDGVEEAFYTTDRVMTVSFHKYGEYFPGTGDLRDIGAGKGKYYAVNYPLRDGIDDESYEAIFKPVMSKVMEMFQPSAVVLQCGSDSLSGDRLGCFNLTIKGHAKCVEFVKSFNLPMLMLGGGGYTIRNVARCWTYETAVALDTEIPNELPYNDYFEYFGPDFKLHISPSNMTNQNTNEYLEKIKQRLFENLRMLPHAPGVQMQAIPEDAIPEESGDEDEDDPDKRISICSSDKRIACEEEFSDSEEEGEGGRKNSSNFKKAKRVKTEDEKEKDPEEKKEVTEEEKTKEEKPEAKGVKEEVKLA

Row | SMILES | IC50 (human recombinant HDAC1) | HDAC6 selectivity (fold) (human recombinant HDAC6) | IC50 (human recombinant HDAC6)
1 | CC(C)N1CCN(c2ccc(-c3nn(Cc4ccc(-c5nnc(C(F)F)o5)cn4)c(=O)o3)cc2)CC1 [Compound 22, 3-[[5-[5-(difluoromethyl)-1,3,4-oxadiazol-2-yl]-2-pyridyl]methyl]-5-[4-(4-isopropylpiperazin-1-yl)phenyl]-1,3,4-oxadiazol-2-one] | > 50000 nM | 479 fold | 104 nM
2 | Fc1cc(-c2nnc(C(F)F)o2)cnc1Cn1nc(-c2ccc3c(c2)CCN(C2CCCCC2)C3)oc1=S [Compound 138, 5-(2-cyclohexyl-3,4-dihydro-1H-isoquinolin-6-yl)-3-[[5-[5-(difluoromethyl)-1,3,4-oxadiazol-2-yl]-3-fluoro-2-pyridyl]methyl]-1,3,4-oxadiazol-2-thione] | > 50000 nM | 1042 fold | 48.7 nM
3 | FC(F)c1nnc(-c2ccc(Cn3nc(-c4ccccc4)oc3=S)nc2)o1 [Compound 45, 3-((5-(5-(difluoromethyl)-1,3,4-oxadiazol-2-yl)pyridin-2-yl)methyl)-5-phenyl-1,3,4-oxadiazol-2(3H)-thione] | > 50000 nM | 543 fold | 92 nM
4 | Fc1cc(-c2nnc(C(F)F)o2)cnc1Cn1nc(-c2ccc(CN3CCCCC3)cc2)oc1=S [Compound 112, 3-[[5-[5-(difluoromethyl)-1,3,4-oxadiazol-2-yl]-3-fluoro-2-pyridyl]methyl]-5-[4-(1-piperidylmethyl)phenyl]-1,3,4-oxadiazol-2-thione] | > 50000 nM | 980 fold | 51 nM
5 | Cc1nc(-c2nn(Cc3ccc(-c4nnc(C(F)F)o4)cn3)c(=S)o2)cs1 [Compound 59, 3-[[5-[5-(difluoromethyl)-1,3,4-oxadiazol-2-yl]-2-pyridyl]methyl]-5-(2-methylthiazol-4-yl)-1,3,4-oxadiazol-2-thione] | > 50000 nM | 669 fold | 74.7 nM
6 | FC(F)c1nnc(-c2ccc(Cn3nc(-c4ccnc(N5CCN(C6CCCC6)CC5)c4)oc3=S)nc2)o1 [Compound 106, 5-[2-(4-cyclopentylpiperazin-1-yl)-4-pyridyl]-3-[[5-[5-(difluoromethyl)-1,3,4-oxadiazol-2-yl]-2-pyridyl]methyl]-1,3,4-oxadiazol-2-thione] | > 50000 nM | 639 fold | 78.2 nM
7 | FC(F)c1nnc(-c2ccc(Cn3nc(-c4cccc(N5CCN(C6CCCC6)CC5)n4)oc3=S)nc2)o1 [Compound 102, 5-[6-(4-cyclopentylpiperazin-1-yl)-2-pyridyl]-3-[[5-[5-(difluoromethyl)-1,3,4-oxadiazol-2-yl]-2-pyridyl]methyl]-1,3,4-oxadiazol-2-thione] | > 50000 nM | 1188 fold | 42.1 nM

From patent publication US20260327214A1, “1,3,4-OXADIAZOLE DERIVATIVE COMPOUNDS AS HISTONE DEACETYLASE 6 INHIBITOR, AND USES THEREOF” (CHONG KUN DANG PHARMACEUTICAL CORP., priority 2022, published 2026)
